Source: patent US20260308116A1, “TERTIARY AMINE COMPOUNDS CONTAINING AN ALKYNE OR AN AZIDE MOIETY AND THEIR USE” (INSTITUT NATIONAL DE LA SANTÉ ET DE LA RECHERCHE MÉDICALE, priority 2023, published 2026)
Like-named read-outs stand apart in the source and are kept apart here.

Legend:
[1] = tested on: FA pathway; conditions: Semlow et al. 2016; Li et al. 2020; cited from earlier work
[2] = tested on: DNA; conditions: photoactivated by UVA (Dunnick et al. 1987); cited from earlier work
[3] = tested on: HeLa FANCD2 KO cells; experiment: Dual parameter plot assay (click / propidium iodide)
[4] = tested on: HeLa cells; experiment: as above
[5] = tested on: HeLa cells; experiment: Reverse alkaline comet assay (ICL formation)
[6] = tested on: HeLa cells; experiment: Clonogenic survival assay
[7] = tested on: primary fibroblast cells from FA patients (FA1, FA2); experiment: Repair of lesions in FA patient primary fibroblasts
[8] = tested on: fibroblast cells from XP patients (XP1, XP2); experiment: Repair of lesions in XP patient fibroblasts
[9] = tested on: primary fibroblast cells from non-FA subjects (C3, C4); experiment: Repair of lesions in non-FA primary fibroblasts; type: cell-based
Experimental: HeLa, Jurkat and FA or XP primary cells (10^6 per dish) were seeded into 10 cm culture dishes and incubated overnight in culture medium. The following day, samples were treated with 0.5 μM click-Melphalan (Example 1), 0.5 μM click-MonoMelphalan (Example 2) or DMSO vehicle for 1 h. After treatment, cells were PBS-washed and released into medium. At designated time points, samples were harvested and fixed in EtOH 70%. Fixed cells where incubated in a click reaction buffer (50 μM Alexa fluor 647 azide, 1 mM copper (II) sulfate, 100 mM sodium ascorbate, 100 mM Tris-HCl pH 8.0) for 30 min at room temperature and then washed extensively using 3×5% FBS in PBS rinses to remove unbound reporter. Samples were stained with 5 μg/mL propidium iodide in 3% FBS in PBS and then analyzed using an LSR Fortessa flow cytometer (BD Biosciences, San Jose, CA). Ten thousand events were collected for each sample and gated using forward-versus side-scatter to eliminate cell debris and doublets. The data were analyzed using FlowJo software version 7.6.5 (Tree Star, San Carlos, CA).
FA patient skin fibroblast cells were cryopreserved at Saint-Louis Hospital (Paris, France). Informed consents were obtained from the patients and/or their relatives and IRB approval from the INSERM was given under the number 12-078. […]

[10] = tested on: cells from subject C3 (non-XP); experiment: Repair of lesions in control (non-XP) fibroblasts
[11] = tested on: HeLa cells; experiment: Repair of lesions in HeLa cells, click reaction and flow cytometry
[12] = tested on: DNA; experiment: Detection of click agents in cells by microscopy (Alexa Fluor 647 azide)
[13] = tested on: HeLa cells; experiment: Detection of G2 arrest by flow cytometry
[14] = tested on: PHA-stimulated lymphocytes from FA patients; experiment: Repair of lesions in FA patient lymphocytes; conditions: both FA patients, 48 h post treatment

In the case of `O=c1ccc2cc3ccoc3cc2o1` [Psoralen], the “repair of psoralen-induced ICLs by FA” value [1] is given as “not preferentially repaired by FA” and the “type of DNA lesions generated” value [2] is given as “almost exclusively ICLs”.
For `N[C@@H](Cc1ccc(N(CCCl)CCCl)cc1)C(=O)O` [melphalan, (S)-2-amino-3-(4-(bis(2-chloroethyl)amino)phenyl)propanoic acid, reference compound], the “cell cycle block and repair until 48 h” value [3] was “remained blocked in late S-G2 phase until 48 h with unrepaired DNA lesions”, the “cell cycle phase of positive cells at 12 h” value [4] was “most of the HeLa positive cells are blocked in late S-G2” and the “fluorescence at 24 h” value [4] was “a decrease in fluorescence is observed at 24 h”. For the same compound, the “repair at 48 h” value [4] was “full repair at 48 h”, the “IR-induced tail moment after pre-treatment” value [5] was “large decrease in the IR-induced tail moment” and the “visual comet score in the absence of IR” value [5] was “neither Melphalan, click-Melphalan (Example 1), mono-melphalan (Comparative Example 1) nor click-mono-melphalan (Example 2) generated a visual comet score beyond the vehicle-treated control”. For the same compound, the “number of colonies formed (clonogenic survival)” value [6] was “similarly reduces the number of colonies formed with no significative differences”, the “toxicity compared to mono-melphalan” value [6] was “higher toxicity of melphalan compared to mono-melphalan” and the “cells still positive for melphalan” value [7] was ~100%. For the same compound, the “persistence of melphalan-induced lesions” value [7] was “persisted in the FA patient cells up to 48 h”, the “cells still positive for melphalan” value [8] was ~75% and the “cells still positive for melphalan” value [9] was “less than 25%”. The “cells still positive for melphalan” value [10] was 25%, the “effect of added non-clickable melphalan on repair of click-mono-melphalan monoadducts” value [11] was “inhibited by the addition of non-clickable melphalan during the first 24 h of recovery” and the “fluorescence in cells after click reaction” value [12] was “do not present significant levels of fluorescence”. The “overall biological response, melphalan vs click-melphalan” value [13] was “equivalent biological response”.
With `N[C@@H](Cc1ccc(N(CCO)CCCl)cc1)C(=O)O` [mono-melphalan, (S)-2-Amino-3-(4-((2-chloroethyl) (2-hydroxyethyl)amino)phenyl)propanoic acid] the “dependence of the repair delay on DNA content” value ([3]; FIG. 7A left panel) was “observed in all cells independently of their DNA content”, the “repair of DNA lesions at 24 h” value ([3]; HeLa FANCD2 KO compared to HeLa, 24 h, FIG. 7A left panel) was “slightly delayed in HeLa FANCD2 KO at 24 h compared to HeLa cells” and the “visual comet score in the absence of IR” value ([5]; no IR, FIG. 1C, 1D, 2C) was “neither Melphalan, click-Melphalan (Example 1), mono-melphalan (Comparative Example 1) nor click-mono-melphalan (Example 2) generated a visual comet score beyond the vehicle-treated control”. The “repair of lesions in PHA-stimulated lymphocytes” value [14] was “able to repair mono-melphalan”, the “number of colonies formed (clonogenic survival)” value ([6]; 1 h treatment, colonies after 15 days, parent vs click compound, FIG. 1A, 1B) was “similarly reduces the number of colonies formed with no significative differences” and the “reduction of signal during repair of lesions, FA vs non-FA cells” value ([7]; FA1, FA2 vs C3, C4 fibroblasts, FIG. 9B) was “No significant differences in the reduction of signal”. For the same compound, the “cells still positive for mono-melphalan” value ([8]; XP1 and XP2, 48 h, FIG. 11B) was ~100%, the “persistence of mono-melphalan-induced lesions” value ([8]; XP compared to non-XP cells, up to 48 h, FIG. 11A, 11B) was “persisted in the XP patient cells up to 48 hours” and the “cells still positive for mono-melphalan” value ([10]; subject C3, 48 h, FIG. 11B) was ~0%.
